Results: US4672066A, “Derivatives of 4-acetyl-3-hydroxy-2-alkyl-phenoxycarboxylic acids” (Hoffmann-La Roche Inc., priority 1985, dated 1987)

Key:
PAF [1] = target: T1, PAF (Canis lupus familiaris, UniProt A0A8I3NSH0); test: PAF Radioreceptor Binding Assay; details: Table I; dog platelets, 3H-PAF
T1 construct: followed by 2×10^7 dog platelets; from tissue; host or cells: washed platelets from citrate-treated dog blood
T1 sequence (A0A8I3NSH0 1-343): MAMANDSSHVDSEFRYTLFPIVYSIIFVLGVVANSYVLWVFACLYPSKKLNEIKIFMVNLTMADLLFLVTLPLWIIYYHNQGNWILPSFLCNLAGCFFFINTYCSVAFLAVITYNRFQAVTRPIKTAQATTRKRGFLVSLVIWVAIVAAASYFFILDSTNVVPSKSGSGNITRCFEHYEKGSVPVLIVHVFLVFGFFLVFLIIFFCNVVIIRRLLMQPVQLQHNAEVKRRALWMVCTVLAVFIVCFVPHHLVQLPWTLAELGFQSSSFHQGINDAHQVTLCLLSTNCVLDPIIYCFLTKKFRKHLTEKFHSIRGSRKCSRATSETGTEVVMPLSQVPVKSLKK
Procedure: Platelet rich plasma is prepared by centrifugation of citrate-treated dog blood. Acidification to pH 6.5 with 0.15 M citric acid and centrifugation for 10 minutes at 1000 xg yields a platelet pellet which is then washed by resuspension in EDTA-Phosphate Buffered Saline (PBS) and recentrifuged. The washed platelet preparation is adjusted to 2×10^7 platelets/50 μl in 0.1% BSA-PBS. […] After mixing, incubating for 10 minutes at room temperature, and centrifuging for 1 minute in a Beckman Microfuge B (8000 xg), the pellet is removed by clipping off the tip of the tube, the platelets are solubilized with 200 μl of 50% methanol, and counted in 10 ml of Aquasol. […] Results obtained with representative compounds of the present invention in this assay are summarized hereinafter in Tables I, II and III.

leukotriene E4 (LTE4) = test: LTE4-Induced Guinea Pig Bronchoconstriction Test; assay type: in vivo; details: 10 mg/kg i.v.
Procedure: In this test system, the ability of a drug to inhibit the bronchoconstriction induced in guinea pigs by leukotriene E4 (LTE4) is measured. A maximally constrictory dose of LTE4 is injected into guinea pigs which have been pretreated with propranolol (0.1 mg/kg, i.v.) for 5 minutes prior to challenge. The bronchoconstriction (in cm H2 O) elicited in animals pretreated intravenously for 30 seconds (at 10 mg/kg) or orally for 2 hours (at 100 mg/kg) with the test drug prior to LTE4 challenge is compared to that elicited in the absence of the test compound to determine the in vivo activity of the drug.

SRS-A = test: Guinea Pig Ileum, In Vitro (SRS-A antagonism); details: Table I, read-out: SRS-A Antagonism IC50
Procedure: The guinea pig ileum bioassay system has been described by Orange and Austen, Adv. Immunol. 10: 104-144 ([…]). A 1.5 cm segment is removed from animals weighting 300-400 g. and suspended in an organ bath containing 10 ml. of Tyrodes solution with 10^-6 M atropine sulfate and 10^-6 M pyrilamine maleate. The bath is maintained at 37° C. and aerated with a mixture of 95% oxygen and 5% carbon dioxide. The SRS-A utilized in this screen is obtained by challenging chopped lung fragments from actively sensitized guinea pigs with egg albumin, in vitro. A dose-response curve to SRS-A challenge is established for the ileum. The dose of SRS-A which gives 50% of the maximal contraction (EC50) is then used for subsequent challenge. The drug concentration which inhibits, by 50%, the SRS-A induced constriction of the guinea pig ileum is determined.

PAF [2] = test: PAF-Induced Guinea Pig Bronchoconstriction Test; assay type: in vivo, guinea pig (Hartley); details: i.v.; compared with LTE
Procedure: Male guinea pigs (Hartley strain) weighing 300 to 500 g are anesthetized with urethane (2 g/kg) intraperitoneally and a polyethylene cannula is inserted into the jugular vein for drug administration. Tracheal pressure is recorded from a cannula inserted in the trachea and connected to a Statham pressure transducer. Propranolol (0.1 mg/kg) is administered intravenously five minutes before challenge with synthetic PAF, the animals's skeletal muscles are then paralyzed with succinylcholine (1.2 mg/kg i.v.), and the animal is respirated using a Harvard small animal respirator operating at 40 breaths/min and 2.5 cc stroke volume. Under these conditions PAF induces a dose-dependent increase in ventilatory pressure over a dose range of 0.5 to 5 pg/kg i.v. The bronchoconstrictive effect of PAF occurs at approximately a 10-fold lower dose than that obtained with LTE. For screening purposes animals are challenged with a single dose of PAF (10 pg/kg i.v.).
Test compounds are screened by either the intravenous route (1.0 mg/kg i.v., 1 min pretreatment) or oral route (100 mg/kg p.o., 2 hour pretreatment). The peak increase in ventilatory pressure (cm H2 O) is recorded for three control animals and five drug-treated animals and the percent inhibition determined.

PAF [3] = test: PAF-Induced Rat Skin Wheal Test; assay type: in vivo, Sprague-Dawley rats; details: compared with LTE
Procedure: This test evaluates the ability of compounds to inhibit PAF-induced increases in vascular permeability in the skin of Sprague-Dawley rats. PAF induces a dose-dependent skin wheal response in this system over a dose range of 0.0001 to 1 pg/0.05 ml injection. The profound vasoactive activity of PAF is emphasized by the fact that the maximum skin wheal response is considerably greater than that obtained with LTE and an EC50 response is elicited at a 10-fold lower dose. For drug screening purposes, 5 ng of PAF is injected intradermally into anesthetized rats which had been pretreated for 30 minutes with an antihistamine (pyrilamine maleate, 50 mg/kg, i.p.) and an antiserotonin compound (methylsergide maleate, 4 mg/kg, i.p.). Immediately thereafter, the test compound is injected intravenously into the tail vein of the animal. This is followed by an intravenous injection of Evan's blue dye (0.5% in saline). Thirty minutes later the animals are sacrificed and the increase in vascular permeability induced by the migration of dye into the injection point in the skin is determined. For this purpose, rats are sacrificed by cervical dislocation, the dorsal skin is removed, the long and short axis of each […] is measured with a metric vernier caliper and the average diameter is obtained.

| Structure (SMILES) | IC50 (PAF [1]) | inhibition of LTE4-induced bronchoconstriction (leukotriene E4 (LTE4)) | IC50 (SRS-A) | bronchoconstrictive effect of PAF, dose lower than that with LTE (PAF [2]) | EC50 response in skin wheal, dose lower than with LTE (PAF [3]) |
| --- | --- | --- | --- | --- | --- |
| CCCc1c(OCCCCCC(=O)NCCCCc2cccnc2)ccc(C(C)=O)c1O.Cl [Example 4, 6-(4-Acetyl-3-hydroxy-2-propylphenoxy)-N-[4-(3-pyridinyl)butyl]hexanamide hydrochloride] | 0.7 µM | 95% | 6 µM |  |  |
| CCCc1c(OCCCCCC(=O)OCCCc2cccnc2)ccc(C(C)=O)c1O.Cl [Example 28, 6-(4-Acetyl-3-hydroxy-2-propylphenoxy)-hexanoic acid, 3-(3-pyridinyl)propyl ester hydrochloride] |  | 87% |  |  |  |
| CCCCCCCCCCCCCCCCOCC(COP(=O)([O-])OCC[N+](C)(C)C)OC(C)=O (stereo not drawn) [PAF, reference compound] |  |  |  | ~10 fold | 10 fold |
